Assay results from US9857356B2, “Muscle chips and methods of use thereof” (President and Fellows of Harvard College, priority 2011, dated 2018).
Bridges are numbered along the chain shown (N, C = ends). Where no end group is shown, it is not given here.

How the values were obtained:
[1] = tested on: vascular smooth muscle cells; assay: Horizontal vascular smooth muscle thin film (hMTF) contractility assay; type: cell-based
Protocol: FIG. 12 contrasts the use of fluorescent microscopy and the use of brightfield stereo microscopy of vascular smooth muscle (VSM) horizontal MTFs during an assay of the invention as described in Example 5. The top row depicts fluorescent microscopy photographs of VSM horizontal MTFs comprising fluorescent beads embedded in the PDMS film. […] (A) Photographs taken 5 minutes after the start of the experiment, the films are slightly bent up from the glass due to the initial contraction of VSM. […] Polydimethylsiloxane (PDMS) thin film substrates were fabricated via a multi-step spin coating process. Poly(N-isopropylacrylamide) ([…]) (Polysciences, Inc.) was dissolved at 10 wt % in 99.4% 1-butanol (w/v) and was then deposited as a thin layer onto the open glass islands, then the top protective film layer was peeled off. Sylgard 184 (Dow Corning) polydimethylsiloxane (PDMS) elastomer was mixed at a 10:1 base to curing agent ratio doped with 0.1% by volume […] Fluorospheres (Invitrogen), and spun coated on top of the […] coated glass cover slip which was then cured. The next day, the bottom protective film was peeled off. A mask, printed on transparencies was used to cut the glass into desired shapes. MTFs were released from the cover slip once the cells have formed the appropriate 2D microstructure. The MTFs were either cut out by hand, cut out using a robotic system, pre-cut prior to cell incubation. In one specific example of, e.g., horizontal MTF production, the middle section was cut out, so that only six rectangles remained in the area that had […]). Once the Tyrode's solution cools below 35° C., the […] layer transitions from a hydrophobic state to a hydrophilic state and begins to dissolve. As the […] dissolved the middle section cutout was peeled off the substrate with a pair of tweezers. Once the […] dissolves completely, the contraction of the myocytes pulls the MTF (the remaining rectangles) free from the rigid substrate. In the case of the horizontal MTF, rectangles remain with one end partially fixed to the substrate. Actuation and observation of multiple MTFs was carried out in a physiologic solution (e.g., normal Tyrodes solution). The horizontal […]) fabricated with vascular smooth muscle cells in the presence of fluorescent beads were treated with the endothelium-produced vasoconstrictor endothelin-1 (ET-1) followed by the rho-kinase inhibitor HA-1077. […] Quantification and analysis of thin film motion was performed using ImageJ (NIH) and MATLAB software. From the thresholded fluorescent images the length of the projection of the film on the horizontal plane was tracked throughout the contraction and the radius of curvature calculated. Using elasticity theory, the contraction stress necessary to induce the measured changes in curvature were calculated.

[2] = tested on: Human umbilical artery vascular smooth muscle; assay: Vascular muscular thin film (vMTF) contractility assay, films on posts; type: cell-based
Protocol: Human umbilical artery vascular smooth muscle was seeded on thin films at 300 cells/mm^2 in complete M199 medium (M199 supplemented with 10% fetal bovine serum (FBS), penicillin, streptomycin, L-glutamine, glucose and vitamin B12). The tissue was cultured in complete M199 for 48 hours, with a single media change at 24 hours. After 48 hours, the cells were serum starved for an additional 48 hours (M199 supplemented with penicillin, streptomycin, L-glutamine, glucose and vitamin B12, but no FBS).
Muscle thin films were transferred to fresh Tyrode's solution in the testing dish (FIG. 1), which is maintained at 37° C. by a peltier heating system. Films were adhered to Teflon coated posts (FIG. 3) by moving them into close contact using tweezers. The films were imaged using a stereomicroscope outfitted with fluorescent imaging capability. Both brightfield and fluorescent images were captured every thirty seconds. In the experiment shown in FIG. […]
Quantification and analysis of thin film motion was performed using ImageJ (NIH) and MATLAB software. Thresholded fluorescent images (FIG. 4B) were fit to circles whose radii of curvature could be measured (FIG. 4C). Using elasticity theory, the contraction stress necessary to induce the measured changes in curvature were calculated (FIG. 4D). […]

| Compound | effect on VSM horizontal MTFs (FIG. 12B) ([1]; 20 minutes after addition of the vasoconstrictor) | change in radius of curvature ([1]; hMTFs stimulated with 50 nM ET-1 at time 0) | increase in cell generated stress ([2]; vMTFs stimulated with 50 nM ET-1 at time 0) [kPa] | effect on VSM horizontal MTFs (FIG. 12C) ([1]; 30 minutes after addition of the rho-kinase inhibitor) | change in radius of curvature ([1]; hMTFs, 100 mM HA-1077 following ET-1) | stress after treatment (residual stress) ([2]; vMTFs, 100 mM HA-1077 following ET-1) [kPa] |
| --- | --- | --- | --- | --- | --- | --- |
| endothelin-1 (CSCSSLMDKECVYFCHLDIIW; disulfide 1-15, 3-11; ends not checked; UniProt P05305 53-73, looked up) [ET-1, endothelium-produced vasoconstrictor] | causes the VSM to contract | decrease in their radii of curvature | 5.06±0.75 | – | – | – |
| O=S(=O)(c1cccc2cnccc12)N1CCCNCC1 [HA-1077, fasudil] | – | – | – | causes the VSM to completely relax | rapid increase in radius of curvature | 3.1±0.8 |
